How the values were obtained:
[1] = test system: Mus musculus; experiment: Neurotoxicity in conscious mouse assessed as effect on behavior at 100 mg/kg after 5 hrs; format: toxicity, organism-based; design: dose 100 mg/kg; conditions: in vivo
[2] = test system: Mus musculus; experiment: Neurotoxicity in conscious mouse assessed as effect on behavior at 100 mg/kg after 2 hrs; format: toxicity, organism-based; design: dose 100 mg/kg; conditions: in vivo
[3] = test system: Mus musculus; experiment: Neurotoxicity in conscious mouse assessed as effect on CNS function at 100 mg/kg after 24 hrs; format: toxicity, organism-based, Central nervous system; design: dose 100 mg/kg; conditions: in vivo
[4] = test system: Mus musculus; experiment: Neurotoxicity in conscious mouse assessed as effect on CNS function at 100 mg/kg after 5 hrs; format: toxicity, organism-based, Central nervous system; design: dose 100 mg/kg; conditions: in vivo
[5] = test system: Plasma; experiment: Plasma concentration in dog at 10 mg/kg, iv; format: ADME, organism-based, Canis lupus familiaris; design: dose 10 mg/kg, route intravenous; conditions: in vivo
[6] = test system: Plasma; experiment: Plasma concentration in dog at 3 mg/kg, iv; format: ADME, organism-based, Canis lupus familiaris; design: dose 3 mg/kg, route intravenous; conditions: in vivo
[7] = test system: Plasma; experiment: Plasma concentration in dog at 1 mg/kg, iv; format: ADME, organism-based, Canis lupus familiaris; design: dose 1 mg/kg, route intravenous; conditions: in vivo
[8] = test system: Canis familiaris; experiment: Cardiotoxicity in anesthetized dog assessed as increase in PR interval at 10 mg/kg, iv; format: toxicity, organism-based, Canis lupus familiaris; design: dose 10 mg/kg, route intravenous; conditions: in vivo
[9] = test system: Canis familiaris; experiment: Cardiotoxicity in anesthetized dog assessed as effect on QTc interval at 10 mg/kg, iv; format: toxicity, organism-based, Canis lupus familiaris; design: dose 10 mg/kg, route intravenous; conditions: in vivo
[10] = test system: Canis familiaris; experiment: Cardiotoxicity in anesthetized dog assessed as effect on QTc interval at 3 mg/kg, iv; format: toxicity, organism-based, Canis lupus familiaris; design: dose 3 mg/kg, route intravenous; conditions: in vivo
[11] = test system: Canis familiaris; experiment: Cardiotoxicity in anesthetized dog assessed as effect on QRS interval at 10 mg/kg, iv; format: toxicity, organism-based, Canis lupus familiaris; design: dose 10 mg/kg, route intravenous; conditions: in vivo
[12] = test system: Canis familiaris; experiment: Cardiotoxicity in anesthetized dog assessed as effect on heart rate at 1 mg/kg, iv; format: toxicity, organism-based, Canis lupus familiaris; design: dose 1 mg/kg, route intravenous; conditions: in vivo
[13] = test system: Canis familiaris; experiment: Cardiotoxicity in anesthetized dog assessed as effect on mean arterial pressure at 10 mg/kg, iv; format: toxicity, organism-based, Canis lupus familiaris, Artery; design: dose 10 mg/kg, route intravenous; conditions: in vivo
[14] = test system: Canis familiaris; experiment: Cardiotoxicity in anesthetized dog assessed as effect on mean arterial pressure at 3 mg/kg, iv; format: toxicity, organism-based, Canis lupus familiaris, Artery; design: dose 3 mg/kg, route intravenous; conditions: in vivo
[15] = test system: Canis familiaris; experiment: Cardiotoxicity in anesthetized dog assessed as effect on mean arterial pressure at 1 mg/kg, iv; format: toxicity, organism-based, Canis lupus familiaris, Artery; design: dose 1 mg/kg, route intravenous; conditions: in vivo
[16] = Plasma concentration in rat 30 to 100 mg/kg, po after 3.5 hrs; format: ADME, organism-based; design: dose 30-100 mg/kg, route oral
[17] = test system: Rattus norvegicus; experiment: Neurotoxicity in rat assessed as delay in motor coordination at 100 mg/kg, po by rotarod test (reference value: 18%); format: toxicity, organism-based; design: dose 100 mg/kg, route oral; conditions: in vivo
[18] = test system: Rattus norvegicus; experiment: Neurotoxicity in rat assessed as effect on motor coordination at 30 mg/kg, po by rotarod test (reference value: 18%); format: toxicity, organism-based; design: dose 30 mg/kg, route oral; conditions: in vivo
[19] = test system: Rattus norvegicus; experiment: Antiallodynic activity in rat […] model assessed as reversal of complete Freund's adjuvant-induced allodynia at 30 mg/kg, po after 4 hrs; format: functional
[20] = test system: Rattus norvegicus; experiment: Antiallodynic activity in rat spinal nerve ligation model of neuropathic pain assessed as reversal of allodynia at 30 mg/kg, po after 4 hrs; format: functional
[21] = test system: Rattus norvegicus; experiment: Antiallodynic activity in rat spinal nerve ligation model of neuropathic pain assessed as reversal of allodynia at 3 mg/kg, po after 4 hrs; format: functional
[22] = test system: Rattus norvegicus; experiment: Antiallodynic activity in rat […] model assessed as reversal of complete Freund's adjuvant-induced allodynia at 30 mg/kg, po after 2 hrs; format: functional
[23] = test system: Rattus norvegicus; experiment: Antiallodynic activity in rat spinal nerve ligation model of neuropathic pain assessed as reversal of allodynia at 30 mg/kg, po after 2 hrs; format: functional
[24] = test system: Rattus norvegicus; experiment: Antiallodynic activity in rat spinal nerve ligation model of neuropathic pain assessed as reversal of allodynia at 3 mg/kg, po after 2 hrs; format: functional
[25] = AUC in dog at 60 mg/kg, po; format: ADME, organism-based, Canis lupus familiaris; design: dose 60 mg/kg, route oral; conditions: plasma
[26] = Cmax in dog at 60 mg/kg, po; format: ADME, organism-based, Canis lupus familiaris; design: dose 60 mg/kg, route oral; conditions: in vivo
[27] = test system: Canis familiaris; experiment: Clearance in dog plasma at 0.5 mg/kg, iv and 2 mg/kg, po; format: ADME, organism-based, Canis lupus familiaris; conditions: in vivo
[28] = Half life in dog at 0.5 mg/kg, iv and 2 mg/kg, po; format: ADME, organism-based, Canis lupus familiaris; conditions: in vivo
[29] = AUC in rat at 3 mg/kg, po; format: ADME, organism-based; design: dose 3 mg/kg, route oral; conditions: plasma
[30] = Cmax in rat at 1 mg/kg, iv and 3 mg/kg, po; format: ADME, organism-based; conditions: in vivo
[31] = Half life in rat at 1 mg/kg, iv and 3 mg/kg, po; format: ADME, organism-based; conditions: in vivo
[32] = Metabolic stability in dog liver microsomes assessed as compound remaining after 60 mins in presence of 10 uM substrate; format: ADME, Canis lupus familiaris, Microsome; conditions: read-out: Stability
[33] = Metabolic stability in human liver microsomes assessed as compound remaining after 60 mins in presence of 10 uM substrate; format: ADME, Microsome; conditions: read-out: Stability
[34] = target: T1, Nuclear receptor subfamily 1 group I member 2 (Homo sapiens, UniProt O75469); experiment: Induction of PXR
T1 sequence (O75469 whole entry): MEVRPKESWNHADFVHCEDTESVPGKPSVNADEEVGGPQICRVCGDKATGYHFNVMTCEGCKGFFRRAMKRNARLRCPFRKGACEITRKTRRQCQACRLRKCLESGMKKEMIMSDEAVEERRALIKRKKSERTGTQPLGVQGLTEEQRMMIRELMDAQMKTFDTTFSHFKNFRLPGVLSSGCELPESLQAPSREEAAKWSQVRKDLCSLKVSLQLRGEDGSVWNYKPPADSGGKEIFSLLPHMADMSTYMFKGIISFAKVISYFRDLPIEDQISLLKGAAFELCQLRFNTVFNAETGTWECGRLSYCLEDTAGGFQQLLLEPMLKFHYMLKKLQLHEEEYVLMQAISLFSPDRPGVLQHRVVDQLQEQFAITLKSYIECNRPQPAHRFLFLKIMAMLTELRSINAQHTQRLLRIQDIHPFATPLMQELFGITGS

[35] = target: Cytochrome P450 2D6 (Homo sapiens, UniProt P10635); experiment: Inhibition of CYP2D6; format: ADME
Chain of Cytochrome P450 2D6 (P10635 whole entry): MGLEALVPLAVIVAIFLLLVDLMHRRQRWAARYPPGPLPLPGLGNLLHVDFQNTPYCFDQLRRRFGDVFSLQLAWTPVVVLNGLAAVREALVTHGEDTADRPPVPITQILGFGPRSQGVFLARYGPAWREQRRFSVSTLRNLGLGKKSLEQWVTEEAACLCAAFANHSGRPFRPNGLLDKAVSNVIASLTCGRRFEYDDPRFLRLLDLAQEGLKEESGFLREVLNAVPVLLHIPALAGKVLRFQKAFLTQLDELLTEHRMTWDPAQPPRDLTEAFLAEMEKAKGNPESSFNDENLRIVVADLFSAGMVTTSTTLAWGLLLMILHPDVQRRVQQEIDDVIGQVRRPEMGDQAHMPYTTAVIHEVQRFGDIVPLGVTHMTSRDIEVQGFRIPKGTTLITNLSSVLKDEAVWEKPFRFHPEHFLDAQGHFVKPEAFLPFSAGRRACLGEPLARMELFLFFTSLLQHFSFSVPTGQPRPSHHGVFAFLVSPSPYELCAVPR

[36] = target: Cytochrome P450 2C9 (Homo sapiens, UniProt P11712); experiment: Inhibition of CYP2C9; format: ADME
Chain of Cytochrome P450 2C9 (P11712 whole entry): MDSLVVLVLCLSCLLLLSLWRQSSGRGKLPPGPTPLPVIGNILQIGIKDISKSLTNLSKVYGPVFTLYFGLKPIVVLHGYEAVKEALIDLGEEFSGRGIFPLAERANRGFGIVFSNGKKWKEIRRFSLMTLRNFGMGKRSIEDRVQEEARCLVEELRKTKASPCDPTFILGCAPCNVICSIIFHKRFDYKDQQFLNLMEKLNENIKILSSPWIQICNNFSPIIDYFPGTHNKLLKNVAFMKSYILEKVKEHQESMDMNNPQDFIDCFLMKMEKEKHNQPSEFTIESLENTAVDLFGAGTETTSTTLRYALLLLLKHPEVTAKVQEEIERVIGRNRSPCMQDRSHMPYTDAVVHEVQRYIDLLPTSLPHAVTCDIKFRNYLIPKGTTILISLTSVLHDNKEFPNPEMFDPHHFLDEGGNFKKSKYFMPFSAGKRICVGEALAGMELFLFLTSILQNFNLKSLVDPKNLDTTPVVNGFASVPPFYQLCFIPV

[37] = target: Sodium channel protein type 5 subunit alpha (Homo sapiens, UniProt Q14524); experiment: Inhibition of Nav1.5 by VIPR assay
[38] = target: Sodium channel protein type 10 subunit alpha (Homo sapiens, UniProt Q9Y5Y9); experiment: Inhibition of human Nav1.8 by VIPR assay
Chain of Sodium channel protein type 10 subunit alpha (Q9Y5Y9 whole entry): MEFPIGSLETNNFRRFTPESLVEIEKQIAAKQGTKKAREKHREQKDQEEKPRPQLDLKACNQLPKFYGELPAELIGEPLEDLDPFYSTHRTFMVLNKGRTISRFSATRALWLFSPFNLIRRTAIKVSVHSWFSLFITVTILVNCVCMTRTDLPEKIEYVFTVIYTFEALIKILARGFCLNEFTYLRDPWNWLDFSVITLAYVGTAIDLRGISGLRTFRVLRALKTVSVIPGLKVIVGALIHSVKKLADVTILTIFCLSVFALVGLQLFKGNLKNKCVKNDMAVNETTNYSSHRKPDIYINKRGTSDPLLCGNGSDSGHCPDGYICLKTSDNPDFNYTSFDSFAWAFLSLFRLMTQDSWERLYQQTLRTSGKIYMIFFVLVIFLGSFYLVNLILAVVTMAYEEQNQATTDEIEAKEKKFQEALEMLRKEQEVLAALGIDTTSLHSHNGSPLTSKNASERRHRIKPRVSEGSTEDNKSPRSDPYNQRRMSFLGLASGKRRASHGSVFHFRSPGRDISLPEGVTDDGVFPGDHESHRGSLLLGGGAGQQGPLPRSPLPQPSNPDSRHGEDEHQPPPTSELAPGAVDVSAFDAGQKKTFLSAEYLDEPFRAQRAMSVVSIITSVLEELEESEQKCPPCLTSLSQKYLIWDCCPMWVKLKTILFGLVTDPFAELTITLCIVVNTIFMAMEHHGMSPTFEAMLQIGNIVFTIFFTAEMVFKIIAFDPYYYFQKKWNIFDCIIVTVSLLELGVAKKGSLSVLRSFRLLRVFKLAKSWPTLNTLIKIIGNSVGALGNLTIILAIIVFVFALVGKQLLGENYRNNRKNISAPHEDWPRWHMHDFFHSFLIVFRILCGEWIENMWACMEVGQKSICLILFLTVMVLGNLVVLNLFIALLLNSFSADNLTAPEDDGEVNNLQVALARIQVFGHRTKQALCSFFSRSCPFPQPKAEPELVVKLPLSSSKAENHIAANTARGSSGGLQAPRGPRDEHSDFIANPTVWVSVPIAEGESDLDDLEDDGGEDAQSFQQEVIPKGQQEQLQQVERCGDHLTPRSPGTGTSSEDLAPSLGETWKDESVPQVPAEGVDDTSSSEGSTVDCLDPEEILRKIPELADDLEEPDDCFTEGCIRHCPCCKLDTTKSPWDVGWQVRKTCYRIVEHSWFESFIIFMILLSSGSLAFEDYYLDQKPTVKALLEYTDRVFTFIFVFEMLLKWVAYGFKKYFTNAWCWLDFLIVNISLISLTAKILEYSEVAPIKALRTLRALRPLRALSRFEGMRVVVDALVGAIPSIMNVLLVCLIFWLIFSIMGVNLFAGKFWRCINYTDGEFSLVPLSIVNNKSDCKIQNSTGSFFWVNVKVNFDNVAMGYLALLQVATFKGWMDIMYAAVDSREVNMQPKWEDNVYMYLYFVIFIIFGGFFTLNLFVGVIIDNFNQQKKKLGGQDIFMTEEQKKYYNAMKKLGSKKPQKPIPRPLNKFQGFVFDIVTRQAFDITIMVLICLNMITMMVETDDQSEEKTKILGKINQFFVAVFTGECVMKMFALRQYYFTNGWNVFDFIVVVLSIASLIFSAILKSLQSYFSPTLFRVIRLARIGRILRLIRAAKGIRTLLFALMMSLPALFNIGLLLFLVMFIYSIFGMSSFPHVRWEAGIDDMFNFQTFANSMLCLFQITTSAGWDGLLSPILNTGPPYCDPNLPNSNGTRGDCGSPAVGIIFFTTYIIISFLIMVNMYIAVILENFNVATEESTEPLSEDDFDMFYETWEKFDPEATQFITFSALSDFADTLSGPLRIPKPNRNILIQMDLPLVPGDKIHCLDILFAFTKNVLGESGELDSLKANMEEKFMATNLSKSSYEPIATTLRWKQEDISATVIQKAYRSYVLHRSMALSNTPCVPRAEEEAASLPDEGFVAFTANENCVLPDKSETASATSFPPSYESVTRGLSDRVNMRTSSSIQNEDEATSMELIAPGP

[39] = test system: Rattus norvegicus; experiment: Antiallodynic activity in rat spinal nerve ligation model of neuropathic pain assessed as reversal of allodynia at 10 mg/kg, po after 4 hrs; format: functional; conditions: Rattus norvegicus, Spinal nerve, 4 h
[40] = target: hERG (KCNH2) (Homo sapiens, UniProt Q12809); experiment: Inhibition of MK-0499 binding to human ERG at 10 uM; conditions: probe MK-0499
[41] = test system: Mus musculus; experiment: Neurotoxicity in conscious mouse assessed as effect on behavior at 100 mg/kg after 24 hrs; format: toxicity, organism-based; design: dose 100 mg/kg; conditions: in vivo
[42] = test system: Mus musculus; experiment: Neurotoxicity in conscious mouse assessed as effect on motor activity at 100 mg/kg after 2 hrs; format: toxicity, organism-based; design: dose 100 mg/kg; conditions: in vivo
[43] = test system: Mus musculus; experiment: Neurotoxicity in conscious mouse assessed as effect on motor activity at 100 mg/kg after 5 hrs; format: toxicity, organism-based; design: dose 100 mg/kg; conditions: in vivo
[44] = test system: Mus musculus; experiment: Neurotoxicity in conscious mouse assessed as effect on motor activity at 100 mg/kg after 24 hrs; format: toxicity, organism-based; design: dose 100 mg/kg; conditions: in vivo
[45] = test system: Mus musculus; experiment: Neurotoxicity in conscious mouse assessed as effect on body temperature at 100 mg/kg after 2 hrs; format: toxicity, organism-based; design: dose 100 mg/kg; conditions: in vivo
[46] = test system: Mus musculus; experiment: Neurotoxicity in conscious mouse assessed as effect on body temperature at 100 mg/kg after 5 hrs; format: toxicity, organism-based; design: dose 100 mg/kg; conditions: in vivo
[47] = target: Sodium channel protein type 9 subunit alpha (Homo sapiens, UniProt Q15858); experiment: Inhibition of human Nav1.7 by VIPR assay
Chain of Sodium channel protein type 9 subunit alpha (Q15858 whole entry): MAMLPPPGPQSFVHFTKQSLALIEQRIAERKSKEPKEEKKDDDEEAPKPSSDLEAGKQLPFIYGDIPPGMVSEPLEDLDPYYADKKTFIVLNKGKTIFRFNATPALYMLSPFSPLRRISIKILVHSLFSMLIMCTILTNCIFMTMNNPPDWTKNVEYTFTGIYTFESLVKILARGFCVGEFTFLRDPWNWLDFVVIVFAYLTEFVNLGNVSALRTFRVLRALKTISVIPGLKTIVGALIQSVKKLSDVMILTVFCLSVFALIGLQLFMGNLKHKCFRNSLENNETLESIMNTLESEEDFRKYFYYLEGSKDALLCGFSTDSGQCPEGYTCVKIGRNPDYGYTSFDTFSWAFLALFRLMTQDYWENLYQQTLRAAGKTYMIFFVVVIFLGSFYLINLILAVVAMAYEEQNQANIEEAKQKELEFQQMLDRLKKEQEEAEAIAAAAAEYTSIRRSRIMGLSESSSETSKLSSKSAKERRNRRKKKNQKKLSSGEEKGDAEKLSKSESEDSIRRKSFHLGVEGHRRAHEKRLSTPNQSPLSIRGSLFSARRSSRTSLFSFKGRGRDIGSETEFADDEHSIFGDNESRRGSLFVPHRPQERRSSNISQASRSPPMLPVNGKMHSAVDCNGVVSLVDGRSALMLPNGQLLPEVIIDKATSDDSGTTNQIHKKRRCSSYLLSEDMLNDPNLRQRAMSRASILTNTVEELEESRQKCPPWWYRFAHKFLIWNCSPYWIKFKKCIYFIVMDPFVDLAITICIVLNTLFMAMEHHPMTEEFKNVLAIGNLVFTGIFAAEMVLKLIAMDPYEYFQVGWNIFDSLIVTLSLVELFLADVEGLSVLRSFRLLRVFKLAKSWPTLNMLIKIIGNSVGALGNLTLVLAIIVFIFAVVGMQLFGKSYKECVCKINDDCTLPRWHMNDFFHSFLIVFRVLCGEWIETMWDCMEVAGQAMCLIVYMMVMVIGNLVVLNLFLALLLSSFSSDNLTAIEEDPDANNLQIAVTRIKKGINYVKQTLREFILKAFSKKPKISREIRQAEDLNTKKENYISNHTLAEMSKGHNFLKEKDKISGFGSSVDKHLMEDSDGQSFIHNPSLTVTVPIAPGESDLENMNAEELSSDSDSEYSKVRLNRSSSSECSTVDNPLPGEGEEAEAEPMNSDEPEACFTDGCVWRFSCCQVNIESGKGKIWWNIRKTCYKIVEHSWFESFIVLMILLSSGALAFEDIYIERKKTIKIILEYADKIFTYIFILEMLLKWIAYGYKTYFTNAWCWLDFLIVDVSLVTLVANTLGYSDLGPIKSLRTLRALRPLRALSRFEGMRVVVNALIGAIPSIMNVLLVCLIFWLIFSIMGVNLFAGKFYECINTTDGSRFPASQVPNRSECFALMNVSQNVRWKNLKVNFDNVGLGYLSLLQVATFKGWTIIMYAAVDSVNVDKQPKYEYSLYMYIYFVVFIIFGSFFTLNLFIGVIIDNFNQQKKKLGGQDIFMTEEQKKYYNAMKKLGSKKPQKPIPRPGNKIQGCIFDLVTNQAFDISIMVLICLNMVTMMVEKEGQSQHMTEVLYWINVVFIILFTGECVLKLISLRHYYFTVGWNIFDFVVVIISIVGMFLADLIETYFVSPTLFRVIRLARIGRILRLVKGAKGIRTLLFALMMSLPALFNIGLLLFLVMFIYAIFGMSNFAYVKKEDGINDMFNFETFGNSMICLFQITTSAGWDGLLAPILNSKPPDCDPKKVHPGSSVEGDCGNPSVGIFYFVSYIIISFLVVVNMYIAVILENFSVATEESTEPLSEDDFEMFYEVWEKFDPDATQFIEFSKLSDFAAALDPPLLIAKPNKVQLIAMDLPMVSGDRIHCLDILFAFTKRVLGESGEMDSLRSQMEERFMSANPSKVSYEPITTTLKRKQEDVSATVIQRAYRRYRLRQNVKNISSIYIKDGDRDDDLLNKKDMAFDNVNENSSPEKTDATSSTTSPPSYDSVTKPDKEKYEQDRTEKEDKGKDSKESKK

Question: Which results are given for `NC(=O)c1cc(C(N)=O)n(-c2cccc(-c3cc(C(F)(F)F)ccc3C(F)(F)F)c2)n1`?
Answer: Activity [1]: Non-toxic; Activity [2]: Non-toxic; Activity [3]: Non-toxic; Activity [4]: Non-toxic; concentration [5]: 78.2 µM; concentration [6]: 16.2 µM; concentration [7]: 7.3 µM; Activity [8]: 6%; Activity [9]: Non-toxic; Activity [10]: Non-toxic; Activity [11]: Non-toxic; Activity [12]: Non-toxic; Activity [13]: Non-toxic; Activity [14]: Non-toxic; Activity [15]: Non-toxic; concentration at 3.5 h [16]: 31.6 µM; Activity [17]: -11%; Activity [18]: -2%; inhibition in vivo at 30 mg/kg [19]: 53%; inhibition in vivo at 30 mg/kg [20]: 59%; inhibition in vivo at 3 mg/kg [21]: 30%; inhibition in vivo at 30 mg/kg [22]: 46%; inhibition in vivo at 30 mg/kg [23]: 56%; inhibition in vivo at 3 mg/kg [24]: 18%; AUC [25]: 650 µM·h; Cmax [26]: 24.4 µM; clearance [27]: 0.03 L/h/kg; half-life [28]: 12 h; AUC [29]: 5.6 µM·h; Cmax [30]: 2.64 µM; half-life [31]: 3.1 h; remaining at 1 h, 10 uM [32]: > 99%; remaining at 1 h, 10 uM [33]: > 99%; IC50 [34]: > 25 µM; IC50 [35]: > 100 µM; IC50 [36]: 20.3 µM; IC50 [37]: 1.32 µM; IC50 [38]: 2 µM; inhibition in vivo at 10 mg/kg [39]: 34%; inhibition at 10 µM [40]: 17%; Activity [41]: Non-toxic; Activity [42]: Non-toxic; Activity [43]: Non-toxic; Activity [44]: Non-toxic; Activity [45]: Non-toxic; Activity [46]: Non-toxic; IC50 [47]: 0.81 µM

Source: ChEMBL document CHEMBL1629455, “Discovery of a novel class of biphenyl pyrazole sodium channel blockers for treatment of neuropathic pain” (Bioorg Med Chem Lett, 2010)
